Consider ten compounds from ChEMBL document CHEMBL1151569, “Diphenylmethyl ethers: synthesis and histamine H3-receptor antagonist in vitro and in vivo activity” (Bioorg Med Chem Lett, 1996).

Assay [1] has as its target Histamine H2 receptor (Cavia porcellus) (UniProt P47747). The assay can be described thus: In vitro antagonistic activity against histamine H2-receptor of guinea pig atrium. The class given is functional, tissue-based. As to conditions: Cardiac atrium.
Assay [2] deals with Histamine H3 receptor (Rattus norvegicus, UniProt Q9QYN8). The assay is described as follows: In vitro antagonistic activity against histamine H3-receptor in an assay with K+-evoked depolarisation-induced release of [3H]histamine of synaptosomes of rat cerebral cortex. The assay is classed as functional, subcellular, Brain.
In assay [3] the target is Histamine H3 receptor (Mus musculus) (UniProt P58406). The assay can be described thus: In vivo antagonistic activity against histamine H3-receptor of Swiss mice brain after peroral administration. The class given is functional, organism-based.
Assay [4] concerns the target Histamine H1 receptor (Cavia porcellus) (UniProt P31389). The assay is described as follows: In vitro antagonistic activity against histamine H1-receptor of guinea pig ileum. The class given is functional, tissue-based.

Chain of Histamine H3 receptor (Mus musculus) (P58406 whole entry): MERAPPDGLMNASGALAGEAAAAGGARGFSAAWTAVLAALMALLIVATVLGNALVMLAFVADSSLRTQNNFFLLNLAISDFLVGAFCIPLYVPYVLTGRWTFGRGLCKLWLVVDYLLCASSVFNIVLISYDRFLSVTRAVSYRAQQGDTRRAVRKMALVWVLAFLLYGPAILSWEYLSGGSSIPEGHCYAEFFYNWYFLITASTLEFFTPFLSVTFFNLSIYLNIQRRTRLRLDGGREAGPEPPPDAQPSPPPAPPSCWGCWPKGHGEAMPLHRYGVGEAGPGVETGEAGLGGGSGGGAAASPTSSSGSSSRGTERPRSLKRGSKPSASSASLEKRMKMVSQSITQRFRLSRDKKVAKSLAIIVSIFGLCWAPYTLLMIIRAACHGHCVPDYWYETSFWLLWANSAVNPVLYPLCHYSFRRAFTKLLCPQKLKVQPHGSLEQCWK
Chain of Histamine H1 receptor (Cavia porcellus) (P31389 whole entry): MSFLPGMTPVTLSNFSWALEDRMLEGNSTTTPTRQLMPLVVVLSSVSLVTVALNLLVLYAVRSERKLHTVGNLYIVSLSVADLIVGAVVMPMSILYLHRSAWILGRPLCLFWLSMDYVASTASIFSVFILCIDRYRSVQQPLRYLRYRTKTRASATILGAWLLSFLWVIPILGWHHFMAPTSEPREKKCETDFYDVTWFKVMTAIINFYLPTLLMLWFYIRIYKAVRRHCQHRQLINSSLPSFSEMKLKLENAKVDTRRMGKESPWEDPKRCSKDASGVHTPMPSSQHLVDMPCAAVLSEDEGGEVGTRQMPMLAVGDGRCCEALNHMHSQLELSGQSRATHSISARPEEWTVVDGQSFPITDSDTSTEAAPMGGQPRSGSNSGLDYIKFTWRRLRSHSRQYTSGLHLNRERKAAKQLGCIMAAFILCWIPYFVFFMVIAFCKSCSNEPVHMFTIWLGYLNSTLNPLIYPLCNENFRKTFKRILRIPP
Chain of Histamine H3 receptor (Q9QYN8 whole entry): as the sequence (P58406 whole entry) above, with A15T, T286A, G290A, H387R, V389I counted along it
Chain of Histamine H2 receptor (Cavia porcellus) (P47747 whole entry): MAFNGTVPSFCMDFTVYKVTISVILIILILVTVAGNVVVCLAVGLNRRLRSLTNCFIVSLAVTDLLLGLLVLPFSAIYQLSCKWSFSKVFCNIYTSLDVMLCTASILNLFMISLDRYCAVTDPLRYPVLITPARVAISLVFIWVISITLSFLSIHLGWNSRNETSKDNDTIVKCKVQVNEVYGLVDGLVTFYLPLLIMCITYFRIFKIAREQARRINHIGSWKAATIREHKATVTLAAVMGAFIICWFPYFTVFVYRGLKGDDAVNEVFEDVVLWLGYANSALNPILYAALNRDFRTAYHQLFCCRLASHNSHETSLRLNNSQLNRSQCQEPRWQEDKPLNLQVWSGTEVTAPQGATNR

In assay [1], `c1ccc(C(OCCCc2c[nH]cn2)c2ccccc2)cc1` displayed a -Log K of 5.5. In assay [2], this compound had a Ki of 25.1 nM. In addition, in assay [3], it took a dose of 2.4 mg/kg to reach the 50% effect level (ED50). Also, the Kb in assay [4] was 501 nM.
`S=C(NC1CCCCC1)N1CCC(c2cnc[nH]2)CC1`: in assay [1], the -Log K was under 5. Moreover, it took a dose of 1 mg/kg to reach the 50% effect level in assay [3] (ED50). Besides, the Kb in assay [4] was over 100000 nM.
With `Fc1ccc(C(OCCCc2c[nH]cn2)c2ccccc2)cc1` (stereo not given), in assay [1], the -Log K was determined as 5.3. Besides, in assay [2], the affinity corresponds to a Ki of 25.1 nM. Besides, in assay [3], the 50% effect level (ED50) was put at a dose of 1.2 mg/kg.
Compound `FC(F)(F)c1ccc(C(OCCCc2c[nH]cn2)c2ccccc2)cc1` (stereo not given) had a Ki in assay [2] of 200 nM. Besides, the ED50 in assay [3] was over 10 mg/kg.
Consider `Clc1ccc(C(OCCCc2c[nH]cn2)c2ccccc2)cc1` (stereo not given), for which the -Log K in assay [1] was determined as 5.2. In assay [3], this compound registered an ED50 of 3.9 mg/kg.
In assay [1], `N=C(NCc1ccc(Cl)cc1)SCCCc1c[nH]cn1` had a -Log K of under 6. The compound also registered an ED50 in assay [3] of 26 mg/kg. The compound further registered an antagonist equilibrium constant (Kb) in assay [4] of over 1000 nM.
Compound `c1ccc2c(COCCCc3c[nH]cn3)cccc2c1` had a -Log K in assay [1] of 4.9. The Ki in assay [2] was 20 nM. This compound also came in with an ED50 in assay [3] of 3.2 mg/kg.
Turning to `Fc1ccc(C(OCCCc2c[nH]cn2)c2ccc(F)cc2)cc1`, the -Log K in assay [1] was found to be 5.6. The compound also had an inhibition constant (Ki) in assay [2] of 25.1 nM. In addition, the median effective dose (ED50) in assay [3] was 1.1 mg/kg.
Regarding `c1ccc(COCCCc2c[nH]cn2)cc1`, the -Log K in assay [1] was 3.7. The Ki in assay [2] was 20 nM. Moreover, the ED50 in assay [3] was over 10 mg/kg. In assay [4], the Kb was found to be 20000 nM.
In assay [1], `Brc1ccc(C(OCCCc2c[nH]cn2)c2ccccc2)cc1` (stereo not given) had a -Log K of 5.4. Also, affinity in assay [2] was put at a Ki of 126 nM. Also, it took a dose of 3.6 mg/kg to reach the 50% effect level in assay [3] (ED50).
